Columns and labels:
Format in all cases: in vivo
Velvetleaf = experiment: Example 4: container-grown velvetleaf, backpack sprayer, necrosis and control; conditions: for % Necrosis After 1 Day / % Control 5 Days / % Control 9 Days / % Control 21 Days: velvetleaf, chlorimuron 0.31 lb.ai/A, dimethyl azelate 1.5 % W/W, 12 gal/A spray
Description: Chlorimuron is a sulfonylurea-type postemergence herbicide, sold by duPont under the trade name “Classic”. Dimethyl azelate (80% technical grade with 20% emulsifier) was added with the dilute herbicidal spray solution to determine if the rapidity and effectiveness of weed control was improved. A single nozzle flat fan wand backpack sprayer with C02 propellant calibrated for 12 gal/A spray volume was used to apply the treatments with a handheld wand applicator and constant walking speed. Velvetleaf plants of 6 to 8 inch height with 3 plants per 16 fl oz container in soil-less media were treated with the mixtures shown in the table below. Each treatment was applied to 3 containers to provide 3 replications per treatment. The dilute spray solutions were agitated during application. The effects of the treatment were observed daily for 21 days with the following results: […]

Rye (Secale cereale L) = experiment: Example 6 Study 1: container-grown rye, spray treatment, necrosis and control; conditions: sethoxydin 0.01 % W/W, dimethyl azelate 3 % W/W, 25 gal/Acre spray; for % Necrosis After 3 Day: 3 days
Description: Rye (Secale cereale L) was grown in 16 fl. oz. containers in soil less media until 4 inches in height and then treated with the herbicidal compositions shown in Table 1 by spraying the herbicidal compositions with 4 pumps of a calibrated hand pump sprayer. The spray volume delivered was 25 gal/Acre. The containers contained approximately 12 rye plants per pot and each container was one replication. Treatments were in full sun with no wind. The effects of the treatments were observed over 3 weeks with the following results recorded: Sethoxydin, a cyclohexadione class herbicide, was obtained from BASF Corp. as “Poast”. The dimethyl azelate was a technical grade obtained from Cognis Corp.

[1] = system: Momingglory, pitted (Ipomoea lacunosa L.); experiment: Example 5: potted pitted morningglory, spray treatment, epinasty and control; conditions: DMA 2.0 % W/W, 12 gpa spray
Description: Momingglory, pitted (Ipomoea lacunosa L.) was seeded into soil-less media in 16 fl oz plastic pots with 3 plants established per pot. Each pot was a replication. When the morningglory plants had two true leaves, control treatments were applied by 2 manual hand pumps from a calibrated hand-pump sprayer. The spray application was a nominal 12 gpa spray volume. The Day 0 treatments were applied as 2 replications with constant agitation of the dilute spray solution. Treatments were evaluated for a 21 day interval after application as follows: […]

corn (Zea mays L.) = experiment: Example 6 Study 2: potted corn, spray treatment, necrosis and control; conditions: sethoxydin 0.01 % W/W, dimethyl azelate 3 % W/W, 13 gal/A spray; for % Necrosis After 3 Day: 3 days
Description: Rye (Secale cereale L) was grown in 16 fl. oz. containers in soil less media until 4 inches in height and then treated with the herbicidal compositions shown in Table 1 by spraying the herbicidal compositions with 4 pumps of a calibrated hand pump sprayer. The spray volume delivered was 25 gal/Acre. The containers contained approximately 12 rye plants per pot and each container was one replication. Treatments were in full sun with no wind. The effects of the treatments were observed over 3 weeks with the following results recorded: Sethoxydin, a cyclohexadione class herbicide, was obtained from BASF Corp. as “Poast”. The dimethyl azelate was a technical grade obtained from Cognis Corp. Another identical study was conducted with corn (Zea mays L.) with 3 plants per pot and 2 replications. The treatments were applied as 2 pumps per pot for a 13 gal/A spray volume to 6 inch height corn plants.

[2] = system: Mugwort (Artemisia vulgaris L.); experiment: Example 3: container-grown mugwort, spray treatment, necrosis and control; conditions: DMA 1.5 % W/W, 40 gal/A spray; for % Necrosis Day 1: Day 1, glyphosate 0.5 % W/W; for % Necrosis Day 3: Day 3, glyphosate 0.5 % W/W; for % Control Day 9: Day 9, glyphosate 0.5 % W/W; for % Control Day 12: Day 12, glyphosate 0.5 % W/W; for % Control Day 15: Day 15, glyphosate 0.5 % W/W; for % Control Day 19: Day 19, glyphosate 0.5 % W/W
Description: Mugwort (Artemisia vulgaris L.) rhizomes 2 to 3 inches in length were collected from established plants and planted into soil-less media in 16 fl. oz. size containers. Each container was a replicate and contained one plant. On Day 0, 14 to 18 inch height single stem plants of mugwort were treated with the solutions shown in Table 1 with calibrated hand pump sprayers with constant agitation. Each plant was sprayed with 14 hand pumps for a nominal 40 gal/A spray volume application. Treatments were irrigated and fertilized as needed.

target weed = experiment: General observations on time to necrosis or kill of weeds
a variety of weeds = experiment: Example 1: whole plot, summary of visual effect in words; conditions: Example 1 plot; after one day
Description: A quart of glyphosate herbicide was prepared using the label recommendations of the manufacturer (Monsanto) by adding 18 ml. (0.625 liq. oz.) of “Roundup® Super Concentrate” (41% isopropyl glyphosate), to water and bringing the final solution to 32 oz. liquid (Sol. A). To another 18 ml. of “Roundup Concentrate” was added 18 ml. of dimethyl azelate and this mixture diluted with water to 32 liq. oz. (Sol. B). Thus, each solution contained the same amount of glyphosate while Sol. B also contained 2% dimethyl azelate.
Sol. A was applied with a hand sprayer on a 2 ft. by 3 ft. plot of ground containing a variety of weeds. Sol. B was applied in the same manner on a similar adjacent plot containing the same variety of weeds. The temperature was in the mid-80's (° F.) during the test period with no rain.
The test plots were observed daily.

SMILES | % Necrosis After 1 Day (Velvetleaf) [%] | % Control 5 Days (Velvetleaf) [%] | % Control 9 Days (Velvetleaf) [%] | % Control 21 Days (Velvetleaf) [%] | % Necrosis After 1 Day (Rye (Secale cereale L)) [%] | % Necrosis After 3 Day (Rye (Secale cereale L)) [%] | % Control 5 Days (Rye (Secale cereale L)) [%] | % Control 9 Days (Rye (Secale cereale L)) [%] | % Control 21 Days (Rye (Secale cereale L)) [%] | % Necrosis After 1 Day (corn (Zea mays L.)) [%] | % Necrosis After 3 Day (corn (Zea mays L.)) [%] | % Control 5 Days (corn (Zea mays L.)) [%] | % Control 9 Days (corn (Zea mays L.)) [%] | % Control 21 Days (corn (Zea mays L.)) [%] | % Necrosis Day 1 [2] [%] | % Necrosis Day 3 [2] [%] | % Control Day 9 [2] [%] | % Control Day 12 [2] [%] | % Control Day 15 [2] [%] | % Control Day 19 [2] [%] | further results
COc1cc(Cl)nc(NC(=O)NS(=O)(=O)c2ccccc2C(=O)O)n1 [Chlorimuron] | 0 | 48 | 53 | 23 | – | – | – | – | – | – | – | – | – | – | – | – | – | – | – | – | –
COC(=O)CCCCCCCC(=O)OC [DMA, Dimethyl azelate] | 0 | 0 | 0 | 0 | 13 | 15 | 8 | 0 | 0 | 18 | 15 | 13 | 0 | 0 | 49 | 53 | 33 | 21 | 18 | 13 | response of velvetleaf, in words (Velvetleaf; dimethyl azelate alone, 1.5 % W/W): tolerant; % Epinasty Day 5 (leaf distortion and downward twisting) ([1]; Day 5, 2,4-D ester 0.3 % W/W): 5%; % Control Day 7 ([1]; Day 7, 2,4-D ester 0.3 % W/W): 3%; % Control Day 10 ([1]; Day 10, 2,4-D ester 0.3 % W/W): 0%; % Control Day 14 ([1]; Day 14, 2,4-D ester 0.3 % W/W): 0%; % Control Day 21 ([1]; Day 21, 2,4-D ester 0.3 % W/W): 0%
O=C(O)CNCP(=O)(O)O [Glyphosate] | – | – | – | – | – | – | – | – | – | – | – | – | – | – | 0 | 0 | 53 | 100 | 100 | 100 | time for weed and grass necrosis to approach 100% (target weed; without the addition of dimethyl azelate): 3 to 4 days; minimal necrosis times (target weed; without the diester): three to four; visual effect on the weeds of the plot, in words (a variety of weeds): unaffected
CCC/C(=N\OCC)C1=C(O)CC(CC(C)SCC)CC1=O (stereo not shown) [Sethoxydin] | – | – | – | – | 0 | 3 | 24 | 79 | 94 | 0 | 3 | 10 | 40 | 88 | – | – | – | – | – | – | –
